Results as given in the supplement of paper PMC10307832.

What was measured:
Assay in all cases: relative viability (nuclei count vs DMSO), 5 days (fraction); higher = more cells survive
NCI-H520 = tested on: NCI-H520
Outline: (§1)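 Lung cancer cell lines in 1536-well plates were dosed by pin tool the day after seeding, either with one drug alone or with a fixed anchor-drug dose plus five library-drug doses (not always all listed) in √10 steps. After 5 days, cells were fixed and their nuclei stained in one step (final 0.05% Triton X-100, 1% formaldehyde, 1 ug/ml Hoechst), then counted on 4× images. Relative viability is the nuclei count in treated wells divided by that in vehicle wells. Values are medians of duplicate plates.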

NCI-H650 = tested on: NCI-H650
Outline: as §1

EKVX = tested on: EKVX
Outline: as §1

NCI-H1650 = tested on: NCI-H1650
Outline: as §1

NCI-H460 = tested on: NCI-H460
Outline: as §1

NCI-H441 = tested on: NCI-H441
Outline: as §1

LK-2 = tested on: LK-2
Outline: as §1

NCI-H2347 = tested on: NCI-H2347
Outline: as §1

NCI-H1666 = tested on: NCI-H1666
Outline: as §1

NCI-H838 = tested on: NCI-H838
Outline: as §1

H3255 = tested on: H3255
Outline: as §1

ChaGo-K-1 = tested on: ChaGo-K-1
Outline: as §1

## O=C(O)CCCCC(CCSCc1ccccc1)SCc1ccccc1 (configuration not stated) [CPI-613] + CS(=O)(=O)N1CCN(Cc2cc3nc(-c4cccc5[nH]ncc45)nc(N4CCOCC4)c3s2)CC1 [Pictilisib] (partner 1 µM)
NCI-H520; first compound 5 µM
  relative viability: 0.271
NCI-H520; first compound 15.81 µM
  relative viability: 0.279
NCI-H520; first compound 50 µM
  relative viability: 0.286
NCI-H520; first compound 158.11 µM
  relative viability: 0.172
NCI-H520; first compound 500 µM
  relative viability: 0.134
NCI-H650; first compound 5 µM
  relative viability: 0.805
NCI-H650; first compound 15.81 µM
  relative viability: 0.861
NCI-H650; first compound 50 µM
  relative viability: 0.855
NCI-H650; first compound 158.11 µM
  relative viability: 0.742
NCI-H650; first compound 500 µM
  relative viability: 0.736
EKVX; first compound 5 µM
  relative viability: 0.43
EKVX; first compound 15.81 µM
  relative viability: 0.451
EKVX; first compound 50 µM
  relative viability: 0.509
EKVX; first compound 158.11 µM
  relative viability: 0.415
EKVX; first compound 500 µM
  relative viability: 0.406
NCI-H1650; first compound 5 µM
  relative viability: 0.597
NCI-H1650; first compound 15.81 µM
  relative viability: 0.477
NCI-H1650; first compound 50 µM
  relative viability: 0.638
NCI-H1650; first compound 158.11 µM
  relative viability: 0.109
NCI-H1650; first compound 500 µM
  relative viability: 0.0271
NCI-H460; first compound 5 µM
  relative viability: 0.353
NCI-H460; first compound 15.81 µM
  relative viability: 0.315
NCI-H460; first compound 50 µM
  relative viability: 0.347
NCI-H460; first compound 158.11 µM
  relative viability: 0.419
NCI-H460; first compound 500 µM
  relative viability: 0.342
NCI-H441; first compound 5 µM
  relative viability: 0.498
NCI-H441; first compound 15.81 µM
  relative viability: 0.468
NCI-H441; first compound 50 µM
  relative viability: 0.417
NCI-H441; first compound 158.11 µM
  relative viability: 0.147
NCI-H441; first compound 500 µM
  relative viability: 0.0254
LK-2; first compound 5 µM
  relative viability: 0.583
LK-2; first compound 15.81 µM
  relative viability: 0.494
LK-2; first compound 50 µM
  relative viability: 0.535
LK-2; first compound 158.11 µM
  relative viability: 0.554
LK-2; first compound 500 µM
  relative viability: 0.472
NCI-H2347; first compound 5 µM
  relative viability: 0.524
NCI-H2347; first compound 15.81 µM
  relative viability: 0.397
NCI-H2347; first compound 50 µM
  relative viability: 0.705
NCI-H2347; first compound 158.11 µM
  relative viability: 0.144
NCI-H2347; first compound 500 µM
  relative viability: 0.171
NCI-H1666; first compound 5 µM
  relative viability: 0.512
NCI-H1666; first compound 15.81 µM
  relative viability: 0.351
NCI-H1666; first compound 50 µM
  relative viability: 0.404
NCI-H1666; first compound 158.11 µM
  relative viability: 0.15
NCI-H1666; first compound 500 µM
  relative viability: 0.0576
NCI-H838; first compound 5 µM
  relative viability: 0.483
NCI-H838; first compound 15.81 µM
  relative viability: 0.289
NCI-H838; first compound 50 µM
  relative viability: 0.392
NCI-H838; first compound 158.11 µM
  relative viability: 0.299
NCI-H838; first compound 500 µM
  relative viability: 0.0565
H3255; first compound 5 µM
  relative viability: 0.512
H3255; first compound 15.81 µM
  relative viability: 0.462
H3255; first compound 50 µM
  relative viability: 0.452
H3255; first compound 158.11 µM
  relative viability: 0.472
H3255; first compound 500 µM
  relative viability: 0.43
ChaGo-K-1; first compound 5 µM
  relative viability: 0.519
ChaGo-K-1; first compound 15.81 µM
  relative viability: 0.663
